# Reference: patent US9315475B2 (MERCK SHARP & DOHME CORP., priority 2011, dated 2016)
# Molecular target: T1, wildtype HIV-1 protease (Human immunodeficiency virus type 1 group M subtype B, UniProt P04585)
# T1 construct: the wildtype HIV-1 protease (which was expressed in Escherichia coli); made in house; host or cells: Escherichia coli
# Test: Assay for inhibition of microbial expressed HIV protease (Pepcleav)
# Type: biochemical
# Conditions: wild type HIV-1 protease expressed in E. coli, peptide substrate, pH 5.5; mean of at least two independent experiments; read-out: Pepcleav
# In short: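 Cleavage of 400 μM peptide substrate Val-Ser-Gln-Asn-(βnaphthyl)Ala-Pro-Ile-Val by 20 pM wild-type enzyme (E. coli-expressed) ran 1 h at 30 °C after 30 min inhibitor preincubation, pH 5.5 acetate buffer. Inhibition derived from product peak area by C18 LC with multiple-reaction-monitoring MS after formic acid quench.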
row,Compound,IC50
1,"N[C@H](C(=O)Nc1ccc(F)cc1CC[C@@H]1CN[C@H](COC(=O)NCC(F)(F)F)CO1)C(c1ccccc1)c1ccccc1 [Example 196, N-(4-fluoro-2-{2-[(2R,5S)-5-({[(2,2,2-trifluoroethyl)carbamoyl]oxy}methyl)morpholin-2-yl]ethyl}phenyl)-β-phenyl-L-phenylalaninamide]",79 nM
2,"COC(=O)N[C@H](C(=O)Nc1ccccc1CC[C@@H]1CN[C@H](COC(=O)NCc2cncs2)CO1)C(c1ccccc1)c1ccccc1 [Example 19, methyl N-[(1S)-1-benzhydryl-2-oxo-2-[[2-[2-[(2R,5S)-5-(thiazol-5-ylmethylcarbamoyloxymethyl)morpholin-2-yl]ethyl]phenyl]amino]ethyl]carbamate]",48 nM
3,"COC(=O)N[C@H](C(=O)Nc1c(CC[C@@H]2CN[C@H](COC(=O)NCc3ccc(F)cc3)CO2)cc[nH]c1=O)C(c1ccccc1)c1ccccc1 [Example 38, N-(4-{2-[(2R,5S)-5-({[(4-fluorobenzyl)carbamoyl]oxy}methyl)morpholin-2-yl]ethyl}-2-oxo-1,2-dihydropyridin-3-yl)-Nα-(methoxycarbonyl)-β-phenyl-L-phenylalaninamide]",0.6 nM
4,"COC(=O)N[C@H](C(=O)Nc1cncnc1CC[C@@H]1CN[C@H](COC(=O)NCc2ccc(F)cc2)CO1)C(c1ccccc1)c1ccccc1 [Example 36, N-(4-{2-[(2R,5S)-5-({[(4-fluorobenzyl)carbamoyl]oxy}methyl)morpholin-2-yl]ethyl}pyrimidin-5-yl)-Nα-(methoxycarbonyl)-β-phenyl-L-phenylalaninamide]",24 nM
5,"COC(=O)N[C@H](C(=O)Nc1ccccc1CC[C@@H]1CN[C@H](C(=O)Nc2ccccc2)CO1)C(c1ccccc1)c1ccccc1 [Example 7, Nα-(methoxycarbonyl)-β-phenyl-N-(2-{2-[(2R,5S)-5-(phenylcarbamoyl)morpholin-2-yl]ethyl}phenyl)-L-phenylalaninamide]",0.8 nM
6,"CCNC(=O)[C@@H]1CO[C@H](CCc2ccccc2NC(=O)[C@@H](NC(=O)OC)C(c2ccccc2)c2ccccc2)CN1 [Example 3, N-(2-{2-[(2R,5S)-5-(ethylcarbamoyl)morpholin-2-yl]ethyl}phenyl)-Nα-(methoxycarbonyl)-β-phenyl-L-phenylalaninamide]",15 nM
7,"COC(=O)N[C@H](C(=O)Nc1ccccc1CC(F)[C@@H]1CN[C@H](COC(=O)NCc2ccc(F)cc2)CO1)C(c1ccccc1)c1ccccc1 (stereo partly drawn) [Example 78, N-(2-{2-fluoro-2-[(2S,5S)-5-({[(4-fluorobenzyl)carbamoyl]oxy}methyl)morpholin-2-yl]ethyl}phenyl)-Nα-(methoxycarbonyl)-β-phenyl-L-phenylalaninamide]",59 nM
8,"COC(=O)N[C@H](C(=O)Nc1ccccc1CC[C@@H]1CN[C@H](CNS(=O)(=O)c2cccc(C(F)(F)F)n2)CO1)C(c1ccccc1)c1ccccc1 [Example 46, methyl N-[(1S)-1-benzhydryl-2-oxo-2-[[2-[2-[(2R,5R)-5-[[[6-(trifluoromethyl)-2-pyridyl]sulfonylamino]methyl]morpholin-2-yl]ethyl]phenyl]amino]ethyl]carbamate]",50 nM
9,"O=C(NCC(F)(F)F)OC[C@@H]1CO[C@H](CCc2c(F)cncc2NC(=O)[C@@H](NC(=O)OCC(F)(F)F)C(c2ccc(F)cc2)c2ccc(F)cc2)CN1 [Example 141, 4-Fluoro-β-(4-fluorophenyl)-N-(5-fluoro-4-{2-[(2R,5S)-5-({[(2,2,2-trifluoroethyl)carbamoyl]oxy}methyl)morpholin-2-yl]ethyl}pyridin-3-yl)-Nα-[(2,2,2-trifluoroethoxy)carbonyl]-L-phenylalaninamide]",180 nM
10,"CN1CCC(NC(=O)OC[C@@H]2CO[C@H](CCc3c(F)cncc3NC(=O)[C@@H](N)C(c3ccc(F)cc3)c3ccc(F)cc3)CN2)C1 (stereo partly drawn) [Example 229, 4-fluoro-N-(5-fluoro-4-{2-[(2R,5S)-5-({[(1-methylpyrrolidin-3-yl)carbamoyl]oxy}methyl)morpholin-2-yl]ethyl}pyridin-3-yl)-β-(4-fluorophenyl)-L-phenylalaninamide]",190 nM
11,"O=C(C[C@H](c1ccccc1)c1ccncc1)Nc1cccc(F)c1CC[C@@H]1CN[C@H](COC(=O)NCC(F)(F)F)CO1 [Example 162, {(3S,6R)-6-[2-(2-fluoro-6-{[(3R)-3-phenyl-3-pyridin-4-ylpropanoyl]amino}phenyl)ethyl]morpholin-3-yl}methyl (2,2,2-trifluoroethyl)carbamate]",510 nM
12,"COC(=O)N[C@H](C(=O)Nc1cncnc1CC[C@@H]1CN[C@H](COC(=O)NCC(F)(F)F)CO1)C(c1ccccc1)c1ccccc1 [Example 37, Nα-(methoxycarbonyl)-β-phenyl-N-(4-{2-[(2R,5S)-5-({[(2,2,2-trifluoroethyl)carbamoyl]oxy}methyl)morpholin-2-yl]ethyl}pyrimidin-5-yl)-L-phenylalaninamide]",180 nM
13,"COC(=O)N[C@H](C(=O)Nc1ccccc1CC[C@@H]1CN[C@H](CCc2ccccc2NS(=O)(=O)Cc2ccccc2)CO1)C(c1ccccc1)c1ccccc1 [Example 73, N-(2-{2-[(2R,5R)-5-(2-{2-[(benzylsulfonyl)amino]phenyl}ethyl)morpholin-2-yl]ethyl}phenyl)-Nα-(methoxycarbonyl)-β-phenyl-L-phenylalaninamide]",21 nM
14,"COC(=O)N[C@H](C(=O)Nc1ccccc1CC[C@@H]1CN[C@H](COC(=O)NCc2ccc3nonc3c2)CO1)C(c1ccccc1)c1ccccc1 [Example 21, methyl N-[(1S)-1-benzhydryl-2-[[2-[2-[(2R,5S)-5-(2,1,3-benzoxadiazol-5-ylmethylcarbamoyloxymethyl)morpholin-2-yl]ethyl]phenyl]amino]-2-oxo-ethyl]carbamate]",52 nM
15,"COC(=O)N[C@H](C(=O)Nc1ccccc1CC[C@@H]1CN[C@H](Cn2cc([Si](C)(C)C)nn2)CO1)C(c1ccccc1)c1ccccc1 [Example 65, Nα-(methoxycarbonyl)-β-phenyl-N-(2-{2-[(2R,5R)-5-{[4-(trimethylsilyl)-1H-1,2,3-triazol-1-yl]methyl}morpholin-2-yl]ethyl}phenyl)-L-phenylalaninamide]",43 nM
16,"N[C@@H](Cc1cccc2ccccc12)C(=O)Nc1cncc(F)c1CC[C@@H]1CN[C@H](COC(=O)NCC(F)(F)F)CO1 [Example 190, {(3S,6R)-6-[2-(3-{[(2S)-2-amino-3-naphthalen-1-ylpropanoyl]amino}-5-fluoropyridin-4-yl)ethyl]morpholin-3-yl}methyl (2,2,2-trifluoroethyl)carbamate (non-preferred name)]",510 nM
17,"COC(=O)N[C@H](C(=O)Nc1ccccc1CC[C@@H]1CN[C@H](Cn2ccnn2)CO1)C(c1ccccc1)c1ccccc1 [Example 66, Nα-(methoxycarbonyl)-β-phenyl-N-(2-{2-[(2R,5R)-5-(1H-1,2,3-triazol-1-ylmethyl)morpholin-2-yl]ethyl}phenyl)-L-phenylalaninamide]",100 nM
18,"N[C@@H](Cc1ccccc1C1CC1)C(=O)Nc1cncc(F)c1CC[C@@H]1CN[C@H](COC(=O)NCC(F)(F)F)CO1 [Example 189, 2-cyclopropyl-N-(5-fluoro-4-{2-[(2R,5S)-5-({[(2,2,2-trifluoroethyl)carbamoyl]oxy}methyl)morpholin-2-yl]ethyl}pyridin-3-yl)-L-phenylalaninamide]",1730 nM
19,"COC(=O)N[C@H](C(=O)Nc1ccccc1CC[C@@H]1CN[C@H](CNC(=O)c2[nH]c(=O)ccc2F)CO1)C(c1ccccc1)c1ccccc1 [Example 58, methyl N-[(1S)-1-benzhydryl-2-[[2-[2-[(2R,5R)-5-[[(3-fluoro-6-oxo-1H-pyridine-2-carbonyl)amino]methyl]morpholin-4-ium-2-yl]ethyl]phenyl]amino]-2-oxo-ethyl]carbamate]",66 nM
20,"COC(=O)N[C@H](C(=O)Nc1ccccc1CC[C@@H]1CN[C@H](COC(=O)NCc2ccccc2F)CO1)C(c1ccccc1)c1ccccc1 [Example 12, N-(2-{2-[(2R,5S)-5-({[(2-fluorobenzyl)carbamoyl]oxy}methyl)morpholin-2-yl]ethyl}phenyl)-Nα-(methoxycarbonyl)-β-phenyl-L-phenylalaninamide]",3.6 nM
21,"N[C@H](C(=O)Nc1cccc(F)c1CC[C@@H]1CN[C@H](COC(=O)NCc2ccncc2)CO1)C(c1ccc(F)cc1)c1ccc(F)cc1 [Example 198, 4-fluoro-β-(4-fluorophenyl)-N-(3-fluoro-2-{2-[(2R,5S)-5-({[(pyridin-4-ylmethyl)carbamoyl]oxy}methyl)morpholin-2-yl]ethyl}phenyl)-L-phenylalaninamide]",44 nM
22,"COC(=O)N[C@H](C(=O)Nc1ccccc1CC[C@@H]1CN[C@H](C(=O)N2CCCC2)CO1)C(c1ccccc1)c1ccccc1 [Example 5, Nα-(methoxycarbonyl)-β-phenyl-N-(2-{2-[(2R,5S)-5-(pyrrolidin-1-ylcarbonyl)morpholin-2-yl]ethyl}phenyl)-L-phenylalaninamide]",80 nM
23,"N[C@H](C(=O)Nc1cccc(C(F)(F)F)c1CC[C@@H]1CN[C@H](COC(=O)NCC(F)(F)F)CO1)C(c1ccccc1)c1ccccc1 [Example 234, β-phenyl-N-[2-{2-[(2R,5S)-5-({[(2,2,2-trifluoroethyl)carbamoyl]oxy}methyl)morpholin-2-yl]ethyl}-3-(trifluoromethyl)phenyl]-L-phenylalaninamide]",110 nM
24,"COC(=O)N[C@H](C(=O)Nc1ccccc1CC[C@@H]1CN[C@H](CNS(=O)(=O)Cc2ccccc2)CO1)C(c1ccccc1)c1ccccc1 [Example 50, N-(2-{2-[(2R,5R)-5-{[(benzylsulfonyl)amino]methyl}morpholin-2-yl]ethyl}phenyl)-Nα-(methoxycarbonyl)-β-phenyl-L-phenylalaninamide]",49 nM
